From the supplement of paper PMC10307832

Columns and labels:
Assay in all cases: relative viability (nuclei count vs DMSO), 5 days (fraction); higher = more cells survive
A549 = test system: A549
In short: (§1)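 Relative viability divides the nuclei count in treated wells by that in vehicle wells. Lung cancer cell lines were seeded in 1536-well plates, dosed by pin tool the next day, and fixed and stained after 5 days in one step with final 0.05% Triton X-100, 1% formaldehyde and 1 ug/ml Hoechst. Dosing was a single drug or a fixed anchor-drug dose plus five library-drug doses (not always all listed) in √10 steps, and values are medians of duplicate plates imaged at 4×.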

COR-L 105 = test system: COR-L 105
In short: as §1

Calu-6 = test system: Calu-6
In short: as §1

EBC-1 = test system: EBC-1
In short: as §1

IA-LM = test system: IA-LM
In short: as §1

LCLC-103H = test system: LCLC-103H
In short: as §1

LK-2 = test system: LK-2
In short: as §1

NCI-H1299 = test system: NCI-H1299
In short: as §1

NCI-H1355 = test system: NCI-H1355
In short: as §1

NCI-H1666 = test system: NCI-H1666
In short: as §1

NCI-H1703 = test system: NCI-H1703
In short: as §1

NCI-H520 = test system: NCI-H520
In short: as §1

`Cc1sc2c(c1C)C(c1ccc(Cl)cc1)=N[C@@H](CC(=O)OC(C)(C)C)c1nnc(C)n1-2` [JQ1] + CS(=O)(=O)N1CCN(Cc2cc3nc(-c4cccc5[nH]ncc45)nc(N4CCOCC4)c3s2)CC1 [Pictilisib] (partner 1 µM) showed a relative viability (A549; first compound 0.04 µM) of 0.511, a relative viability (A549; first compound 0.1265 µM) of 0.421 and a relative viability (A549; first compound 0.4 µM) of 0.35. The relative viability (A549; first compound 1.265 µM) was 0.253, the relative viability (A549; first compound 4 µM) was 0.185 and the relative viability (COR-L 105; first compound 0.04 µM) was 0.374. It also gave a relative viability (COR-L 105; first compound 0.1265 µM) of 0.264, a relative viability (COR-L 105; first compound 0.4 µM) of 0.312 and a relative viability (COR-L 105; first compound 1.265 µM) of 0.304. For the same compound, the relative viability (COR-L 105; first compound 4 µM) was 0.327, the relative viability (Calu-6; first compound 0.04 µM) was 0.972 and the relative viability (Calu-6; first compound 0.1265 µM) was 0.826. It also gave a relative viability (Calu-6; first compound 0.4 µM) of 0.897, a relative viability (Calu-6; first compound 1.265 µM) of 0.468 and a relative viability (Calu-6; first compound 4 µM) of 0.372. It also gave a relative viability (EBC-1; first compound 0.04 µM) of 0.31, a relative viability (EBC-1; first compound 0.1265 µM) of 0.245 and a relative viability (EBC-1; first compound 0.4 µM) of 0.15. The relative viability (EBC-1; first compound 1.265 µM) was 0.11, the relative viability (EBC-1; first compound 4 µM) was 0.156 and the relative viability (IA-LM; first compound 0.04 µM) was 0.278. It also gave a relative viability (IA-LM; first compound 0.1265 µM) of 0.103, a relative viability (IA-LM; first compound 0.4 µM) of 0.0998 and a relative viability (IA-LM; first compound 1.265 µM) of 0.0879. For the same compound, the relative viability (IA-LM; first compound 4 µM) was 0.0786, the relative viability (LCLC-103H; first compound 0.04 µM) was 0.571 and the relative viability (LCLC-103H; first compound 0.1265 µM) was 0.522. For the same compound, the relative viability (LCLC-103H; first compound 0.4 µM) was 0.537, the relative viability (LCLC-103H; first compound 1.265 µM) was 0.4 and the relative viability (LCLC-103H; first compound 4 µM) was 0.352. The relative viability (LK-2; first compound 0.04 µM) was 0.514, the relative viability (LK-2; first compound 0.1265 µM) was 0.511 and the relative viability (LK-2; first compound 0.4 µM) was 0.35. The relative viability (LK-2; first compound 1.265 µM) was 0.223, the relative viability (LK-2; first compound 4 µM) was 0.226 and the relative viability (NCI-H1299; first compound 0.04 µM) was 0.691. It also gave a relative viability (NCI-H1299; first compound 0.1265 µM) of 0.482, a relative viability (NCI-H1299; first compound 0.4 µM) of 0.219 and a relative viability (NCI-H1299; first compound 4 µM) of 0.104. The relative viability (NCI-H1355; first compound 0.04 µM) was 0.429, the relative viability (NCI-H1355; first compound 0.1265 µM) was 0.426 and the relative viability (NCI-H1355; first compound 0.4 µM) was 0.456. It also gave a relative viability (NCI-H1355; first compound 1.265 µM) of 0.334, a relative viability (NCI-H1355; first compound 4 µM) of 0.281 and a relative viability (NCI-H1666; first compound 0.04 µM) of 0.314. It also gave a relative viability (NCI-H1666; first compound 0.1265 µM) of 0.526, a relative viability (NCI-H1666; first compound 0.4 µM) of 0.414 and a relative viability (NCI-H1666; first compound 1.265 µM) of 0.274. The relative viability (NCI-H1666; first compound 4 µM) was 0.288, the relative viability (NCI-H1703; first compound 0.04 µM) was 0.234 and the relative viability (NCI-H1703; first compound 0.1265 µM) was 0.212. It also gave a relative viability (NCI-H1703; first compound 0.4 µM) of 0.238, a relative viability (NCI-H1703; first compound 1.265 µM) of 0.21 and a relative viability (NCI-H1703; first compound 4 µM) of 0.216. For the same compound, the relative viability (NCI-H520; first compound 0.04 µM) was 0.282, the relative viability (NCI-H520; first compound 0.1265 µM) was 0.283 and the relative viability (NCI-H520; first compound 0.4 µM) was 0.253. It also gave a relative viability (NCI-H520; first compound 1.265 µM) of 0.174 and a relative viability (NCI-H520; first compound 4 µM) of 0.214.
